Data: ChEMBL document CHEMBL4477239 (Bioorg Med Chem, 2016)

Columns and labels:
NCI-H1993 = assay: Cytotoxicity against human NCI-H1993 cells assessed as growth inhibition after 72 hrs by CCK-8 assay; conditions: NCI-H1993, 72 h
Cytochrome P450 2C9 = Cytochrome P450 2C9 (Homo sapiens, UniProt P11712); assay: Inhibition of CYP2C9 in human liver microsomes at 10 uM using sulfaphenazole as […] preincubated for 5 mins followed by NADPH addition measured after 20 mins by LC-MS/MS analysis; type: ADME
Sequence of Cytochrome P450 2C9 (P11712 whole entry): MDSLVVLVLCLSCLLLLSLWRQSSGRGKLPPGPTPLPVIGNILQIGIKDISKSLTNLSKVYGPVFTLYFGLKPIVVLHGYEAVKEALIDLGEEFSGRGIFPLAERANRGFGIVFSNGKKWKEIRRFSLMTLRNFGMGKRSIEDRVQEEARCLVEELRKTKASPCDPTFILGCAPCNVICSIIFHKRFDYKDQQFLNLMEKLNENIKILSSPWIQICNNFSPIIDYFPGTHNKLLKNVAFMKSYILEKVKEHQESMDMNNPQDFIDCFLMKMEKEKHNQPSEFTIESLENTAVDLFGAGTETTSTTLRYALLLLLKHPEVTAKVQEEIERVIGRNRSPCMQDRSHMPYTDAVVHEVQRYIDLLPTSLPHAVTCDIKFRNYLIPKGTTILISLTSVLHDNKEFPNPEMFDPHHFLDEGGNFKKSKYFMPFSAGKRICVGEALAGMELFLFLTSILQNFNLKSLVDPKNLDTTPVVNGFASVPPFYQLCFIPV

Cytochrome P450 3A4 = Cytochrome P450 3A4 (Homo sapiens, UniProt P08684); assay: Time-dependent inhibition of CYP3A4 in human liver microsomes at 10 uM using troleandomycin as […] preincubated with compound followed by NADPH addition by LC-MS/MS analysis; type: ADME
Sequence of Cytochrome P450 3A4 (P08684 whole entry): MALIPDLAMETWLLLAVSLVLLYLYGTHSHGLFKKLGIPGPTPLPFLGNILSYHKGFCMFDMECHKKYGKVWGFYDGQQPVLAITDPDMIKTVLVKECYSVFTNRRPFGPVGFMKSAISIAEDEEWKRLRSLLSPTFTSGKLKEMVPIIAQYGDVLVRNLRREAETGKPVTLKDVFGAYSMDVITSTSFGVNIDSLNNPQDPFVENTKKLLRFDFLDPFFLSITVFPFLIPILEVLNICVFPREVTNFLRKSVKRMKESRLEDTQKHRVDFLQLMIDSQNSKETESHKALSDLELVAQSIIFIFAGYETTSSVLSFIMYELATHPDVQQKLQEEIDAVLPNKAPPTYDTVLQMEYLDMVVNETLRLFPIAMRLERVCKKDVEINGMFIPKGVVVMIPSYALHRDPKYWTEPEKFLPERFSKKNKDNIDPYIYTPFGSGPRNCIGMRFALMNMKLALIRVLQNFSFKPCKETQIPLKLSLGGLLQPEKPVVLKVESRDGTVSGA

Cytochrome P450 2D6 = Cytochrome P450 2D6 (Homo sapiens, UniProt P10635); assay: Time-dependent inhibition of CYP2D6 in human liver microsomes at 10 uM using paroxetine as […] preincubated with compound followed by NADPH addition by LC-MS/MS analysis; type: ADME
Sequence of Cytochrome P450 2D6 (P10635 whole entry): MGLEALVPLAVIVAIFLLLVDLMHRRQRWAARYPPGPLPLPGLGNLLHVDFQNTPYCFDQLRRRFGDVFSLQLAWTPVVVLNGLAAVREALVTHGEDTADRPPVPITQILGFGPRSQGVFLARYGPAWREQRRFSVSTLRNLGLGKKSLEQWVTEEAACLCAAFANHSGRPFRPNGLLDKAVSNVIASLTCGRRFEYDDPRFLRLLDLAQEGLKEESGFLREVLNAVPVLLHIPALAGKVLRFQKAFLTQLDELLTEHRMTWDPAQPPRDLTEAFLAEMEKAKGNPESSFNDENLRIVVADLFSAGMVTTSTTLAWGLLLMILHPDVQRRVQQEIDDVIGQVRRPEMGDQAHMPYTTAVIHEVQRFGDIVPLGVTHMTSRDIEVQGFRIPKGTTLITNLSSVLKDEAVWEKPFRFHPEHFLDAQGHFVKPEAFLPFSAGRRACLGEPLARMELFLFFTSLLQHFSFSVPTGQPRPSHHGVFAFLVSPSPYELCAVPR

[1] = target: Hepatocyte growth factor receptor (Homo sapiens, UniProt P08581)
Sequence of Hepatocyte growth factor receptor (P08581 whole entry): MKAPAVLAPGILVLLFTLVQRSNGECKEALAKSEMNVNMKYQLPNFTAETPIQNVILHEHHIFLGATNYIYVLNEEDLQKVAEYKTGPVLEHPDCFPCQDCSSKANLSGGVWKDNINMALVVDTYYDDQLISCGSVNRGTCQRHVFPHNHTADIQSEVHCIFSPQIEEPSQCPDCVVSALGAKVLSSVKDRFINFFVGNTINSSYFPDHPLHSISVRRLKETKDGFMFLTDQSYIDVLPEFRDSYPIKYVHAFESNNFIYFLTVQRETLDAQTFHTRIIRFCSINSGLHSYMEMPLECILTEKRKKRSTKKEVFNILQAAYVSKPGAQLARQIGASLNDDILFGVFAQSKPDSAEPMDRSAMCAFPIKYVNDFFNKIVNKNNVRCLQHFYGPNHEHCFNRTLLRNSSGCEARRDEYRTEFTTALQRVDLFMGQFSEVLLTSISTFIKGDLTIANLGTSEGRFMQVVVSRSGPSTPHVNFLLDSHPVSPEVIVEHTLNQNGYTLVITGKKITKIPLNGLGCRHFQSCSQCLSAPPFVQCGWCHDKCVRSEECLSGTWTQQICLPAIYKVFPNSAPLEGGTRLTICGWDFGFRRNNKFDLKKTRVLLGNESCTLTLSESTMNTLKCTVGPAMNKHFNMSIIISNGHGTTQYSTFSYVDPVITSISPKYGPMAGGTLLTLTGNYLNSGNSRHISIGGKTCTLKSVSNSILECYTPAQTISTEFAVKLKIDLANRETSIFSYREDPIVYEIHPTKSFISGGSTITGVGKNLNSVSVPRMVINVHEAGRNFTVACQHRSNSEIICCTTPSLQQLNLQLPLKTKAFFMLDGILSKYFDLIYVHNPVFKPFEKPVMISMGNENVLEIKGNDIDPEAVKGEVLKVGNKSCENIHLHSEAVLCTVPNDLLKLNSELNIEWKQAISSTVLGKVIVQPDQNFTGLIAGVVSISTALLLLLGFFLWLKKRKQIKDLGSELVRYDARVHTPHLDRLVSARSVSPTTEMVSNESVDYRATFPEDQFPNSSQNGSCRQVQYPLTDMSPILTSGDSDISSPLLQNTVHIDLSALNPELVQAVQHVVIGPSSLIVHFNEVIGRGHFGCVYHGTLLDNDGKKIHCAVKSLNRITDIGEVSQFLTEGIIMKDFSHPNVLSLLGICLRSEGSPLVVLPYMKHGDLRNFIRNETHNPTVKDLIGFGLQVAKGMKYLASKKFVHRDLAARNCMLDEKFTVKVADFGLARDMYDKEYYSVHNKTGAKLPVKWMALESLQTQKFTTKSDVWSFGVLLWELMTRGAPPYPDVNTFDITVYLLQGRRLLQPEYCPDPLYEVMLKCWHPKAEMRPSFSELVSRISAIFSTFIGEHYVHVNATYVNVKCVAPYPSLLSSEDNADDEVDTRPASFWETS
Description: Inhibition of c-Met kinase (unknown origin) assessed as decrease in phosphorylation of TK substrate-biotin peptide preincubated for 5 to 10 mins followed by ATP addition measured after 30 mins by HTRF assay

Cytochrome P450 1A2 = target: T1, Cytochrome P450 1A2 (Homo sapiens, UniProt P05177); assay: Time-dependent inhibition of CYP1A2 in human liver microsomes at 10 uM using furafylline as […] preincubated with compound followed by NADPH addition by LC-MS/MS analysis; type: ADME
T1 sequence (P05177 whole entry): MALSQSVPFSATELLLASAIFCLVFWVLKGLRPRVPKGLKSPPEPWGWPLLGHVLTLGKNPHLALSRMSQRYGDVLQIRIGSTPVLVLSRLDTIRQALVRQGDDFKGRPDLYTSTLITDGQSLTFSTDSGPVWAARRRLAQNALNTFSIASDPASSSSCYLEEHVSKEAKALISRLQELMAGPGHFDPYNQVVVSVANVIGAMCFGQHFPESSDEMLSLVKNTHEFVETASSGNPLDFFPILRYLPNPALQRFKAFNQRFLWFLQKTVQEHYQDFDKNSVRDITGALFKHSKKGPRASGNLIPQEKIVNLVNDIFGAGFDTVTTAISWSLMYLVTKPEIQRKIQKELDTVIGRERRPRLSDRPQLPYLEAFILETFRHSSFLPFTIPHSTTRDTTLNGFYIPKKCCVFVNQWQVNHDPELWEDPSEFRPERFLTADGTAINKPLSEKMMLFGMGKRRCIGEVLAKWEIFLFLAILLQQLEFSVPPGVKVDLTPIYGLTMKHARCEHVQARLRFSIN

[2] = Intrinsic clearance in rat liver microsomes assessed per mg of protein at 1 uM preincubated for 5 mins followed by NADPH addition measured after 5 to 30 mins by LC-MS/MS analysis; type: ADME, Microsome; conditions: read-out: CLH
[3] = Intrinsic clearance in human liver microsomes assessed per mg of protein at 1 uM preincubated for 5 mins followed by NADPH addition measured after 5 to 30 mins by LC-MS/MS analysis; type: ADME, Microsome; conditions: read-out: CLH

Compound | IC50 [1] | IC50 (NCI-H1993) | further results
Cn1cc(-c2cnc3ncn(Cc4ccc5ncccc5c4)c3n2)cn1 |  | 0.617 µM | 
CC(c1cc(F)c2ncccc2c1)n1cnc2ncc(-c3ccccc3)nc21 (configuration not stated) | 0.155 µM | > 10 µM | 
C[C@H](c1cc2cccnc2cc1F)n1cnc2ncc(-c3ccc(C(N)=O)c(F)c3)nc21 | 0.00279 µM | 0.329 µM | 
C1=C(c2cnc3ncn(Cc4ccc5ncccc5c4)c3n2)CCNC1 | 0.0332 µM | 6.66 µM | 
Cc1c(C(C)n2cnc3ncc(-c4ccncc4)nc32)ccc2ncccc12 (configuration not stated) | 0.0044 µM | 0.95 µM | 
CC(c1c(F)cc2ncccc2c1F)n1cnc2ncc(-c3cccc4ccccc34)nc21 (configuration not stated) | 0.0238 µM |  | 
CC(NC/N=C/c1cnc2[nH]ccc2c1)c1ccc2ncccc2c1 (configuration not stated) | 0.0033 µM | 0.956 µM | 
CC(NC/N=C/c1cnn(CCO)c1)c1ccc2ncccc2c1 (configuration not stated) | 0.0127 µM | 0.148 µM | 
Nc1ccc(-c2cnc3ncn(Cc4ccc5ncccc5c4)c3n2)cc1 | 0.0124 µM | 4.95 µM | 
Cc1c(C(C)n2cnc3ncc(-c4cnn(C)c4)nc32)ccc2ncccc12 (configuration not stated) | 0.0032 µM | 0.206 µM | 
CCC(c1ccc2ncccc2c1F)n1cnc2ncc(-c3ccccc3)nc21 (configuration not stated) | 0.081 µM |  | 
CC(NC/N=C/c1ccccc1)c1ccc2ncccc2c1 (configuration not stated) | 0.00517 µM | 1.22 µM | 
CC(NC/N=C/C1=CCNCC1)c1ccc2ncccc2c1 (configuration not stated) | 0.0152 µM | 2.66 µM | 
Cc1cc2ncccc2cc1C(C)n1cnc2ncc(-c3cnc4ccccc4c3)nc21 (configuration not stated) | 0.0381 µM |  | 
CC(c1cc2cccnc2cc1F)n1cnc2ncc(-c3cn[nH]c3)nc21 (configuration not stated) | 0.0036 µM | 0.187 µM | 
CCC(c1cc2cccnc2cc1F)n1cnc2ncc(-c3cnn(CCO)c3)nc21 (configuration not stated) | 0.0093 µM |  | 
Cc1c(C(C)n2cnc3ncc(-c4cnc5ccccc5c4)nc32)ccc2ncccc12 (configuration not stated) | 0.0049 µM | 0.45 µM | 
CNC(=O)c1ccc(-c2cnc3ncn(C(C)c4cc5cccnc5cc4C)c3n2)cc1F (configuration not stated) | 0.031 µM |  | 
CCC(c1ccc2ncccc2c1F)n1cnc2ncc(-c3cnn(C)c3)nc21 (configuration not stated) | 0.0135 µM |  | 
Cc1c(C(C)n2cnc3ncc(-c4cn[nH]c4)nc32)ccc2ncccc12 (configuration not stated) | 0.0027 µM | 0.599 µM | 
CCC(c1ccc2ncccc2c1F)n1cnc2ncc(-c3ccc(C(=O)OC)c(F)c3)nc21 (configuration not stated) | 0.0392 µM |  | 

Compound | IC50 [1] | IC50 (NCI-H1993) | further results
FC(F)(F)Oc1ccc(-c2cnc3ncn(Cc4ccc5ncccc5c4)c3n2)cc1 | 0.0812 µM | > 10 µM | 
c1cnc2ccc(Cn3cnc4ncc(-c5cn[nH]c5)nc43)cc2c1 | 0.0132 µM | 2.89 µM | 
Oc1nc2ncc(-c3ccncc3)nc2n1Cc1ccc2ncccc2c1 | > 1 µM | > 10 µM | 
CC(NC/N=C/c1cnn(C)c1)c1ccc2ncccc2c1 (configuration not stated) | 0.00249 µM | 0.197 µM | 
CCC(c1ccc2ncccc2c1F)n1cnc2ncc(-c3cnc4ccccc4c3)nc21 (configuration not stated) | 0.0164 µM |  | 
CCC(c1cc2cccnc2cc1F)n1cnc2ncc(-c3ccc(C(=O)NC)c(F)c3)nc21 (configuration not stated) | 0.0094 µM |  | 
CC(NC/N=C/c1ccnn1C)c1ccc2ncccc2c1 (configuration not stated) | 0.0385 µM | 3.29 µM | 
Cn1nccc1-c1cnc2ncn(Cc3ccc4ncccc4c3)c2n1 | 0.0666 µM | 7.91 µM | 
CN(C)c1cccc(-c2cnc3ncn(Cc4ccc5ncccc5c4)c3n2)c1 | 0.04 µM | > 10 µM | 
CC(c1cc2cccnc2cc1F)n1cnc2ncc(-c3cnc4ccccc4c3)nc21 (configuration not stated) | 0.0034 µM | 0.109 µM | 
Cc1cc2ncccc2cc1C(C)n1cnc2ncc(-c3ccc(C(N)=O)c(F)c3)nc21 (configuration not stated) | 0.0117 µM |  | 
CC(c1cc(F)c2ncccc2c1)n1cnc2ncc(-c3ccncc3)nc21 (configuration not stated) | 0.19 µM | > 10 µM | 
COC(=O)c1ccc(-c2cnc3ncn(C(C)c4cc5cccnc5cc4C)c3n2)cc1F (configuration not stated) | 0.0645 µM |  | 
CCC(c1cc2cccnc2cc1F)n1cnc2ncc(-c3cn[nH]c3)nc21 (configuration not stated) | 0.0087 µM |  | 
C[C@H](c1cc2cccnc2cc1F)n1cnc2ncc(-c3cnn(C)c3)nc21 | 0.00194 µM | 0.239 µM | 
c1cnc2ccc(Cn3cnc4ncc(-c5ccncc5)nc43)cc2c1 | 0.0175 µM | 1.16 µM | 
CCC(c1ccc2ncccc2c1F)n1cnc2ncc(-c3ccncc3)nc21 (configuration not stated) | 0.1 µM |  | 
CC(c1cc2cccnc2cc1F)n1cnc2ncc(-c3ccccc3)nc21 (configuration not stated) | 0.0046 µM | 0.57 µM | 
CC(c1cc(F)c2ncccc2c1)n1cnc2ncc(-c3cccc4ccccc34)nc21 (configuration not stated) | > 1 µM |  | 
OCCn1cc(-c2cnc3nnn(Cc4ccc5ncccc5c4)c3n2)cn1 [PF-04217903] |  | 0.0336 µM | 

Second part, led by results:

IC50 [1] | Compound | IC50 (NCI-H1993) | further results
0.001 µM | CC(c1c(F)cc2ncccc2c1F)n1cnc2ncc(-c3cnn(CCO)c3)nc21 (configuration not stated) | 0.0837 µM | inhibition (INH) (Cytochrome P450 2C9): Active; inhibition (INH) (Cytochrome P450 3A4): Not Active; inhibition (INH) (Cytochrome P450 2D6): Not Active; inhibition (INH) (Cytochrome P450 1A2): Not Active; microsomal CLint at 1 µM [2]: 10 µL/min/mg; microsomal CLint at 1 µM [3]: 2 µL/min/mg
0.0918 µM | CC(c1cc(F)c2ncccc2c1)n1cnc2ncc(-c3cnn(C)c3)nc21 (configuration not stated) | > 10 µM | 
> 1 µM | Cn1cc(-c2cnc3nc(O)n(Cc4ccc5ncccc5c4)c3n2)cn1 | > 10 µM | 
0.0172 µM | CCC(c1cc2cccnc2cc1F)n1cnc2ncc(-c3cnc4ccccc4c3)nc21 (configuration not stated) |  | 
0.0077 µM | CCC(c1ccc2ncccc2c1F)n1cnc2ncc(-c3ccc(C(=O)NC)c(F)c3)nc21 (configuration not stated) |  | 
0.0176 µM | c1ccc(-c2cnc3ncn(Cc4ccc5ncccc5c4)c3n2)cc1 | 7.49 µM | 
0.279 µM | CC(c1cc(F)c2ncccc2c1)n1cnc2ncc(-c3cn[nH]c3)nc21 (configuration not stated) | > 10 µM | 
0.0181 µM | CCC(c1cc2cccnc2cc1F)n1cnc2ncc(-c3ccc(C(=O)OC)c(F)c3)nc21 (configuration not stated) |  | 
0.0025 µM | CCC(c1cc2cccnc2cc1F)n1cnc2ncc(-c3ccc(C(N)=O)c(F)c3)nc21 (configuration not stated) | 0.226 µM | 
0.0059 µM | COC(=O)c1ccc(-c2cnc3ncn(C(C)c4ccc5ncccc5c4C)c3n2)cc1F (configuration not stated) |  | 
0.0106 µM | CCC(c1cc2cccnc2cc1F)n1cnc2ncc(-c3cnn(C)c3)nc21 (configuration not stated) |  | 
0.0279 µM | FC(F)(F)c1ccc(-c2cnc3ncn(Cc4ccc5ncccc5c4)c3n2)cc1 | > 10 µM | 
0.0159 µM | OCCn1cc(-c2cnc3ncn(Cc4ccc5ncccc5c4)c3n2)cn1 | 2.33 µM | 
0.0326 µM | Cc1cc2ncccc2cc1C(C)n1cnc2ncc(-c3cnn(C)c3)nc21 (configuration not stated) |  | 
0.00641 µM | COC(=O)c1ccc(/C=N/CNC(C)c2ccc3ncccc3c2)cc1F (configuration not stated) | 1.11 µM | 
0.0246 µM | Fc1ccccc1-c1cnc2ncn(Cc3ccc4ncccc4c3)c2n1 | > 10 µM | 
0.0038 µM | CC(c1cc2cccnc2cc1F)n1cnc2ncc(-c3ccncc3)nc21 (configuration not stated) | 0.171 µM | 

IC50 [1] | Compound | IC50 (NCI-H1993) | further results
0.0225 µM | CCC(c1ccc2ncccc2c1F)n1cnc2ncc(-c3cnn(CCO)c3)nc21 (configuration not stated) |  | 
> 1 µM | Oc1nc2ncc(-c3ccccc3)nc2n1Cc1ccc2ncccc2c1 | > 10 µM | 
0.00274 µM | CC(NC/N=C/c1ccc(C(N)=O)c(F)c1)c1ccc2ncccc2c1 (configuration not stated) | 0.238 µM | 
0.0016 µM | CCC(c1ccc2ncccc2c1F)n1cnc2ncc(-c3ccc(C(N)=O)c(F)c3)nc21 (configuration not stated) | 0.665 µM | 
0.00395 µM | CNC(=O)c1ccc(/C=N/CNC(C)c2ccc3ncccc3c2)cc1F (configuration not stated) | 0.191 µM | 
0.0018 µM | CC(c1c(F)cc2ncccc2c1F)n1cnc2ncc(-c3ccccc3)nc21 (configuration not stated) | 0.514 µM | 
0.0377 µM | CCC(c1ccc2ncccc2c1F)n1cnc2ncc(-c3cn[nH]c3)nc21 (configuration not stated) |  | 
0.0114 µM | CC(NC/N=C/c1cn[nH]c1)c1ccc2ncccc2c1 (configuration not stated) | 0.519 µM | 
0.0281 µM | CCC(c1cc2cccnc2cc1F)n1cnc2ncc(-c3ccccc3)nc21 (configuration not stated) |  | 
0.641 µM | Cc1nc2ncc(-c3cnn(C)c3)nc2n1Cc1ccc2ncccc2c1 | > 10 µM | 
0.0045 µM | CC(c1cc2cccnc2cc1F)n1cnc2ncc(-c3cnn(CCO)c3)nc21 (configuration not stated) | 0.175 µM | 
0.0141 µM | CCC(c1cc2cccnc2cc1F)n1cnc2ncc(-c3ccncc3)nc21 (configuration not stated) |  | 
0.00367 µM | CC(NC/N=C/c1ccncc1)c1ccc2ncccc2c1 (configuration not stated) | 0.614 µM | 
0.0042 µM | Cc1c(C(C)n2cnc3ncc(-c4cnn(CCO)c4)nc32)ccc2ncccc12 (configuration not stated) | 0.726 µM | 
0.0683 µM | Cc1cc2ncccc2cc1C(C)n1cnc2ncc(-c3ccncc3)nc21 (configuration not stated) |  | 
0.134 µM | CC(c1cc(F)c2ncccc2c1)n1cnc2ncc(-c3cnc4ccccc4c3)nc21 (configuration not stated) | > 10 µM | 
